Columns and labels:
[1] = biological target: T1, Nuclear factor erythroid 2-related factor 2 (Mus musculus) (UniProt Q60795); assay: Activation of Nrf2 pathway in mouse BV-2 cells assessed as fold increase in HO-1 level at 5 uM measured after 3 hrs by Western blot analysis; assay type: cell-based; details: filed as activator
T1 sequence (whole entry): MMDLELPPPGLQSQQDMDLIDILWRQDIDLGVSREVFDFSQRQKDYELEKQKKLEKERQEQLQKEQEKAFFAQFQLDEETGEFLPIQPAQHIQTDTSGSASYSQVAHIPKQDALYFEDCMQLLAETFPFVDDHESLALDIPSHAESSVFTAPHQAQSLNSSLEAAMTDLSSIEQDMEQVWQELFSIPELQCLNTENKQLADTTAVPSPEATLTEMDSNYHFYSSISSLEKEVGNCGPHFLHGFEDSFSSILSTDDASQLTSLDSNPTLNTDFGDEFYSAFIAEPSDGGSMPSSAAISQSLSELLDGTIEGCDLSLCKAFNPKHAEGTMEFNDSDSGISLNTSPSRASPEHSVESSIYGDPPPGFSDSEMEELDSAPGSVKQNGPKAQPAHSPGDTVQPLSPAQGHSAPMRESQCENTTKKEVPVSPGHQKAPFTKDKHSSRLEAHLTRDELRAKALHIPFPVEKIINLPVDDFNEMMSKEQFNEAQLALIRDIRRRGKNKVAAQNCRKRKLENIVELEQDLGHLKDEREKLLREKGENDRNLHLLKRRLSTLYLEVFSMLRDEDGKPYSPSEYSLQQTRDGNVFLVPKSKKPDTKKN

[2] = biological target: T1, Nuclear factor erythroid 2-related factor 2 (Mus musculus); assay: Activation of Nrf2 in mouse BV-2 cells assessed as increase in GCLM mRNA expression by measuring fold change at 5 uM incubated for 3 hrs by qRT-PCR analysis; assay type: cell-based; details: filed as activator
[3] = biological target: T1, Nuclear factor erythroid 2-related factor 2 (Mus musculus); assay: Activation of Nrf2 in mouse BV-2 cells assessed as increase in GCLC mRNA expression by measuring fold change at 5 uM measured for 3 hrs by qRT-PCR analysis; assay type: cell-based; details: filed as activator
[4] = tested on: BV-2; assay: Antiinflammatory activity against mouse BV-2 cells assessed as reduction in LPS-induced NO production at 20 uM incubated for 24 hrs by Griess reagent based assay relative to control; assay type: functional; set-up: scale not given: the % may be the effect or the level left
[5] = biological target: T2, Keap1/Nrf2 (Homo sapiens, UniProt Q14145+Q16236); assay: Binding affinity to human Keap1-Nrf2 protein-protein interaction assessed as dissociation constant; assay type: protein assay
[6] = Induction of NQO1 expression in mouse Hepa1c1c7 cells; assay type: functional
[7] = biological target: Keap1/Nrf2 (Homo sapiens, UniProt Q14145); assay: Inhibition of human Keap1 KELCH domain (321 to 609 residues) expressed in Escherichia coli BL21 DE3 pLysS cells/Nrf2 (unknown origin) protein-protein interaction preincubated with Keap1 for 1 hr followed by Nrf2 addition and measured after 1 hr by fluorescence polarization assay
[8] = tested on: HepG2-ARE-C8; assay: Activation of Nrf2-ARE pathway in human HepG2-ARE-C8 cells measured for 24 hrs by ARE-luciferase assay; assay type: cell-based; details: filed as activator
[9] = biological target: T2, Keap1/Nrf2; assay: Binding affinity to human Keap1-Nrf2 protein-protein interaction assessed as inhibition constant incubated for 60 mins by fluorescent polarization assay
[10] = biological target: Amyloid-beta precursor protein (Homo sapiens, UniProt P05067); assay: Inhibition of amyloid beta 42 (unknown origin) self aggregation by Thioflavin T-based fluorometric assay
Sequence of Amyloid-beta precursor protein (P05067 whole entry): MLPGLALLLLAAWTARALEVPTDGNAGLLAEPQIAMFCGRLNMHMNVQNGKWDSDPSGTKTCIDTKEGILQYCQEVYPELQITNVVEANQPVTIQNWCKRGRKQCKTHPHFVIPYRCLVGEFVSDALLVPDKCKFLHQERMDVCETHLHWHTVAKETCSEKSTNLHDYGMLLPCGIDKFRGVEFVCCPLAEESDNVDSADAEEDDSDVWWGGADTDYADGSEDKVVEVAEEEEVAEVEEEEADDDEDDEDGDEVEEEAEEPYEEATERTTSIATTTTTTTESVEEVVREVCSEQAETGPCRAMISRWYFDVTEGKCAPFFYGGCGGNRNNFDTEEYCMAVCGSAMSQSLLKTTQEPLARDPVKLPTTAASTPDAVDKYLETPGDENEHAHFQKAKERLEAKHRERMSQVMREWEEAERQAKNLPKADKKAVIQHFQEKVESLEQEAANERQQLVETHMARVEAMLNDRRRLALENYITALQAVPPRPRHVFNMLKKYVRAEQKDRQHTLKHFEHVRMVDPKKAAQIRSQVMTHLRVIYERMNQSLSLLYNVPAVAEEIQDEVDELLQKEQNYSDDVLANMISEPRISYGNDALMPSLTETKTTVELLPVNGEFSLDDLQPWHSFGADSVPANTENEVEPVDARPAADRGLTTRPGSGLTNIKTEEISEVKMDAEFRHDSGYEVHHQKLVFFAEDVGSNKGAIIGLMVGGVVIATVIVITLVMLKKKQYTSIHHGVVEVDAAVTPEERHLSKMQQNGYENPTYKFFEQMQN

T2 sequence (Q16236 whole entry): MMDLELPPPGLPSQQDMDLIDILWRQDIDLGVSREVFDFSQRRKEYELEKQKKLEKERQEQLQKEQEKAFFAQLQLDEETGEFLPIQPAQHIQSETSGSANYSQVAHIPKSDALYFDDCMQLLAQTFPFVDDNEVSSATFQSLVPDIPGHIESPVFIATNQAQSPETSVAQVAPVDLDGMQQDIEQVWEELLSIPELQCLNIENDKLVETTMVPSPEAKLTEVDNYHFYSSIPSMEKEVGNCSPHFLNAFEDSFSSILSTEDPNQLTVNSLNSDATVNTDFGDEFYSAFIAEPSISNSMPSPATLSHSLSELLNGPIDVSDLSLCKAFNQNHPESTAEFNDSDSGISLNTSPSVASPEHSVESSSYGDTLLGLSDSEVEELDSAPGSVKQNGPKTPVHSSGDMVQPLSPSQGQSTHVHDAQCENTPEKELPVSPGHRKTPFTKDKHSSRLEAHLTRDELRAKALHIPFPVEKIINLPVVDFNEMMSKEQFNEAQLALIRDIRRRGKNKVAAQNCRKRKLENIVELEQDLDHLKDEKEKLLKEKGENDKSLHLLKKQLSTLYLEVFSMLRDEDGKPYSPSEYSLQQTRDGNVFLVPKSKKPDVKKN
T2 sequence (Q14145 whole entry): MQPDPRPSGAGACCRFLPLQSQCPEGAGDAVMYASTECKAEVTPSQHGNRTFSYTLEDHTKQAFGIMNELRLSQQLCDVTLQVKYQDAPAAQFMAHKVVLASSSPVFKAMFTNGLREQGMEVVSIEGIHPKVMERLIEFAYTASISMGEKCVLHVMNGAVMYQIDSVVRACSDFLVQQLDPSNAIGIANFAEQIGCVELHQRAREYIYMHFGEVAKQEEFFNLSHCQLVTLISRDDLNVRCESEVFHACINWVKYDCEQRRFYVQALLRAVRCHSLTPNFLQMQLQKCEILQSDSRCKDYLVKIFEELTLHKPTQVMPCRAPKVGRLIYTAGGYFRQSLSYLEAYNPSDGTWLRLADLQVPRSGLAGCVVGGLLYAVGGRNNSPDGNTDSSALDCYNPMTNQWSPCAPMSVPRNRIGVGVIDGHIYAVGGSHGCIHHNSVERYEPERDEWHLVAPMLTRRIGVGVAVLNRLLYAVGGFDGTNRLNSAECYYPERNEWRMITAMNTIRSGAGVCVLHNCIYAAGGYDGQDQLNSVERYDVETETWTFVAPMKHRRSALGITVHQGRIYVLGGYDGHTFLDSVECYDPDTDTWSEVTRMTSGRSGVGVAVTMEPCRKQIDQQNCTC
Sequence of Keap1/Nrf2 (Homo sapiens, UniProt Q14145) (Q16236 whole entry, the tested form may be a part): as the sequence (Q16236 whole entry) above
Sequence of Keap1/Nrf2 (Homo sapiens, UniProt Q14145) (Q14145 whole entry, the tested form may be a part): as the sequence (Q14145 whole entry) above

CC(=O)O[C@H]1CC(C)(C)C(=C=C/C(C)=C/C=C/C(C)=C/C=C/C=C(C)/C=C/C=C(\C)C(=O)C[C@@]23O[C@]2(C)C[C@@H](O)CC3(C)C)[C@](C)(O)C1
fold change (FC) [1]: 2.02
fold change (FC) [2]: 2.39
fold change (FC) [3]: 2.39

COc1ccccc1S(=O)(=O)/C=C/c1ccccc1F
Activity [4]: 24%

COc1ccccc1S(=O)(=O)/C=C/c1ccccc1Cl
Activity [4]: 15.2%

[H]/N=C(\N/C(=N/[H])NCCCCCCNC(=N)NC(=N)Nc1ccc(Cl)cc1)Nc1ccc(Cl)cc1 [CHLORHEXIDINE]
Kd [5]: < 30 µM

O=[N+]([O-])c1ccc(Sc2nnc(COc3ccccc3)[nH]2)nc1
CD [6]: 7.5 µM

CNC(=O)[C@]12CCC(C)(C)C[C@H]1C1C(=O)C=C3[C@@]4(C)C=C(C#N)C(=O)C(C)(C)[C@@H]4CC[C@@]3(C)[C@]1(C)CC2 (some centres undefined)
CD [6]: 0.001 µM

COc1ccc(S(=O)(=O)Nc2ccc(N(CC(N)=O)S(=O)(=O)c3ccc(OC)cc3)c3ccccc23)cc1
IC50 [7]: 0.0257 µM
Activity [8]: 1.8 nM

COc1ccccc1S(=O)(=O)/C=C/c1cccc(Cl)c1
Activity [4]: 32.1%

COc1ccccc1S(=O)(=O)/C=C/c1ccc(Cl)cc1
Activity [4]: 31.5%

CC1(C)CC[C@]2(C(=O)O)CC[C@]3(C)C(C(=O)C=C4[C@@]5(C)C=C(C(=O)O)C(=O)C(C)(C)[C@@H]5CC[C@]43C)[C@@H]2C1 (some centres undefined)
CD [6]: 0.22 µM

O=C(NCC1CCCO1)C1CCC([N+](=O)[O-])S1 (centres undefined)
Ki [9]: 6.15 µM

CC1(C)CC[C@]2(C#N)CC[C@]3(C)C(C(=O)C=C4[C@@]5(C)C=C(C#N)C(=O)C(C)(C)[C@@H]5CC[C@]43C)[C@@H]2C1 (some centres undefined)
CD [6]: 0.00027 µM

Nc1ccc(Sc2nnc(COc3ccccc3)n2-c2ccccc2)nc1
CD [6]: 2.5 µM

O=[N+]([O-])c1ccc(Sc2nnc(COc3ccccc3)n2-c2ccccc2)nc1
CD [6]: 2.5 µM

COC(=O)[C@]12CCC(C)(C)C[C@H]1C1C(=O)C=C3[C@@]4(C)C=C(C#N)C(=O)C(C)(C)[C@@H]4CC[C@@]3(C)[C@]1(C)CC2 (some centres undefined)
CD [6]: 0.001 µM

O=[N+]([O-])c1ccc(Sc2nnc(Cc3ccccc3)n2-c2ccccc2)nc1
CD [6]: 0.3 µM

COc1ccccc1S(=O)(=O)/C=C/c1ccccc1C(F)(F)F
Activity [4]: 29.9%

COC(=O)[C@]12CCC(C)(C)C[C@H]1C1C(=O)C=C3[C@@]4(C)C=C(C(=O)O)C(=O)C(C)(C)[C@@H]4CC[C@@]3(C)[C@]1(C)CC2 (some centres undefined)
CD [6]: 0.018 µM

CC1(C)CC[C@]2(C(=O)O)CC[C@]3(C)C(C(=O)C=C4[C@@]5(C)C=CC(=O)C(C)(C)[C@@H]5CC[C@]43C)[C@@H]2C1 (some centres undefined)
CD [6]: 0.28 µM

C=CCSC(=O)/C=C/c1ccc(O)c(O)c1
IC50 [10]: 12.5 µM

O=[N+]([O-])c1ccc(Sc2nnc(COc3ccccc3)n2-c2ccccc2)cc1
CD [6]: 10 µM
